Experimental findings from article PMC9995120, “Drug specificity and affinity are encoded in the probability of cryptic pocket opening in myosin motor domains” (eLife, 2023) are described below.

The target of one experiment is T1, β-cardiac myosin (Homo sapiens, UniProt P12883).
T1 construct: gene MYH7; with actin (porcine ventricles); endogenous C2C12 light chains
Nature of the experiment: NADH-linked actin-activated ATPase assay with purified recombinant S1. Format: biochemical. The text has this:
NADH-linked actin-activated ATPase assay with purified recombinant S1 on β-cardiac myosin | we measured the IC50 value for β-cardiac myosin S1.

In another experiment the target is T2, Myh7b (Homo sapiens, UniProt A7E2Y1).
T2 construct: with actin (porcine ventricles); endogenous C2C12 light chains
T2 sequence (A7E2Y1 43-892): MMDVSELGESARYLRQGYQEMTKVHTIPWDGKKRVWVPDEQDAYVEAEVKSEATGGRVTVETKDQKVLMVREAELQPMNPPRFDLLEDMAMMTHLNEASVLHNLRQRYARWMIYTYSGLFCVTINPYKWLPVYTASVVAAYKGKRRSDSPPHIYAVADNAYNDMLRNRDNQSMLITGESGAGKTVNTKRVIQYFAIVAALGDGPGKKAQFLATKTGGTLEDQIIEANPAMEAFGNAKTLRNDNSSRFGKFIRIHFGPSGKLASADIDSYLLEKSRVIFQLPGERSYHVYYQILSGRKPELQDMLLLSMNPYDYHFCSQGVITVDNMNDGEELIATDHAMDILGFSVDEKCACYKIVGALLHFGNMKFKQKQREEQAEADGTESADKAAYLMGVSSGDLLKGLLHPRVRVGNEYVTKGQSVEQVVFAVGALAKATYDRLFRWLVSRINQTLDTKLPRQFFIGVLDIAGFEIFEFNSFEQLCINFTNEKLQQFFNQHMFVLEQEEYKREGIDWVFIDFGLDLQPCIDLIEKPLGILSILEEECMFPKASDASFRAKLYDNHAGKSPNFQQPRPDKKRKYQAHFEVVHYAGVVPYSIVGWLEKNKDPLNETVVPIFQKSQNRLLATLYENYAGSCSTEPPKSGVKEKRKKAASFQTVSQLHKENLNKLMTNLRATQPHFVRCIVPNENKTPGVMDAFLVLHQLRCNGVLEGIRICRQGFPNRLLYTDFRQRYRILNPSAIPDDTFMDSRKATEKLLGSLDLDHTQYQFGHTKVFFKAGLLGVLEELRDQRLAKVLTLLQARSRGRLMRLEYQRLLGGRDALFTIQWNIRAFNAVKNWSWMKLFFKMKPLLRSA
The experiment is described as above. In kind it is biochemical.

T1 sequence (P12883 1-842): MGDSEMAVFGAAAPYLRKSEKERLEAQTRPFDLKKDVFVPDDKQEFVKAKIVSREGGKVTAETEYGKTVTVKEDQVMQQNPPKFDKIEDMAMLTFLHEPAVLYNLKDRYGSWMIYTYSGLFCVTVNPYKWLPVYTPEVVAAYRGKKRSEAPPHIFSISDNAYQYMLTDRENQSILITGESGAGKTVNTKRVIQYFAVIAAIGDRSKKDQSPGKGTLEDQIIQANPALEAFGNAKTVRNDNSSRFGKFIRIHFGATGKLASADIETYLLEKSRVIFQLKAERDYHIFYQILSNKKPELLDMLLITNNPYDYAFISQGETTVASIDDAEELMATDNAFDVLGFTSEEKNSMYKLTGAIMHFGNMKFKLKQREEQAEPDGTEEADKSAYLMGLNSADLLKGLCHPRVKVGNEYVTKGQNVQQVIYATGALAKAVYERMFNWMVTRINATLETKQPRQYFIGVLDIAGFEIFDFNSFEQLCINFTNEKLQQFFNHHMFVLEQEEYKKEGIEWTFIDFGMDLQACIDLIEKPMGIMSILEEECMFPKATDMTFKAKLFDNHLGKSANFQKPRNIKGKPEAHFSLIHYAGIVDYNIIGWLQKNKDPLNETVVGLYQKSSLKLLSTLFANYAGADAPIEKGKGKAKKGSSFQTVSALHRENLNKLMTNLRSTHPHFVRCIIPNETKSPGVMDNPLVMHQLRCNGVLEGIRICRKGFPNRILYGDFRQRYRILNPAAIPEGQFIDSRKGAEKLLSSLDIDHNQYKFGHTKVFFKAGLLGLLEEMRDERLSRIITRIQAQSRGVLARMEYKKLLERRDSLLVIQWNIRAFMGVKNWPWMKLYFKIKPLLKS

What is called IC50 is the point on the concentration scale where inhibition reaches its midpoint. On to `Cc1ccc2c(c1)C(=O)[C@]1(O)CCN(c3ccccc3)C1=N2` [Blebbistatin], for which the values for the IC50 on β-cardiac myosin and on Myh7b were 1.12 ± 0.29 µM and 0.36 ± 0.08 µM, respectively.
